The values below are quoted from earlier work in US11737985B2 (priority 2013, dated 2023).

As usually defined, the Cmax is the peak of the concentration-time curve. A word on the Tmax: it is the time from dosing to the highest level.

Read-outs that look alike come from different tables or passages of the source.

The conditions of data set [1]: with spironolactone treatment, 12 patients, p<0.05, cited from earlier work.
For data set [2] the following is noted: Americas group, at four months; cited from earlier work.
The conditions of data set [3]: in vivo; cited from earlier work.
The conditions of data set [4]: cited from earlier work; for mean concentration in plasma: cancer patients; for Cmax / Tmax: single dose 182 mg controlled-release tablet.
For data set [5] the following is noted: in vivo; cited from earlier work. This is another data set of the same source.

Consider `CC(=O)S[C@@H]1CC2=CC(=O)CC[C@]2(C)[C@H]2CC[C@@]3(C)[C@@H](CC[C@@]34CCC(=O)O4)[C@H]12` [Spironolactone], for which the hypoxic index in data set [1] (vs. 13.6±10.8) was 6.7±6.6 events/h. For the same compound, in data set [1] (vs. 39.8±19.5), the AHI is recorded as 22.0±6.8 events/h. Moreover, the “patients discontinuing the study drug due to hyperkalemia” value in data set [2] is reported as 25.2%. In addition, in data set [3], the half-life entry was “about 1.5 h” and the “time to steady state concentration” value was 7 to 10 days.
Consider `NNc1nncc2ccccc12` [hydralazine, 1-hydrazinophthalazine], for which the “mean concentration in plasma” value in data set [4] (fast acetylators, 182 mg daily controlled-release) is 0.2391 µg/mL; in data set [4] (slow acetylators, 83 mg daily controlled-release) it was 0.2592 µg/mL. Moreover, the Cmax in data set [4] (fast acetylators, ± SD) was 0.2084 ± 0.0569 µg/mL; in data set [4] (slow acetylators), 0.4704 ± 0.1628 µg/mL. For the same compound, the Tmax is 2.8 ± 2.5 h in data set [4] (fast acetylators) and 4.4 ± 3.1 h in data set [4] (slow acetylators). The systemic clearance result in data set [5] was “approximately 50 ml/kg/min”.
